Measured values: ChEMBL document CHEMBL4043214, “Design, synthesis, and SAR study of 3-(benzo[d][1,3]dioxol-5-yl)-N-benzylpropanamide as novel potent synergists against fluconazole-resistant Candida albicans” (2017)
Values after ≈ are worked out from the molar mass of the structure shown.

What was measured:
Format in all cases: functional
Candida albicans [1] = experiment: Potentiation of fluconazole-induced anti-fungal activity against fluconazole-resistant Candida albicans isolate 103 assessed as fluconazole MIC80 at 4 ug/ml by checkerboard microdilution assay
Candida albicans [2] = experiment: Potentiation of fluconazole-induced anti-fungal activity against fluconazole-resistant Candida albicans isolate 103 assessed as fluconazole MIC80 at 8 ug/ml by checkerboard microdilution assay
Candida albicans [3] = experiment: Anti-fungal activity against fluconazole-resistant Candida albicans isolate 100 by microbroth dilution method
Candida albicans [4] = experiment: Anti-fungal activity against fluconazole-resistant Candida albicans isolate 103 by microbroth dilution method
Candida albicans [5] = experiment: Synergistic anti-fungal activity against fluconazole-resistant Candida albicans isolate 100 in presence of fluconazole by two-fold dilution method
Candida albicans [6] = experiment: Synergistic anti-fungal activity against fluconazole-resistant Candida albicans isolate 103 in presence of fluconazole by two-fold dilution method
Candida albicans [7] = experiment: Potentiation of fluconazole-induced anti-fungal activity against fluconazole-resistant Candida albicans isolate 103 by two-fold dilution method
Candida albicans [8] = experiment: Potentiation of fluconazole-induced anti-fungal activity against fluconazole-resistant Candida albicans isolate 100 by two-fold dilution method
Candida albicans [9] = experiment: Potentiation of fluconazole-induced anti-fungal activity against fluconazole-resistant Candida albicans isolate 103 assessed as fluconazole MIC80 at 2 ug/ml by checkerboard microdilution assay
Candida albicans [10] = experiment: Potentiation of fluconazole-induced anti-fungal activity against fluconazole-resistant Candida albicans isolate 103 assessed as fluconazole MIC80 at 1 ug/ml by checkerboard microdilution assay
Candida albicans [11] = experiment: Potentiation of fluconazole-induced anti-fungal activity against fluconazole-resistant Candida albicans isolate 100 assessed as fluconazole MIC80 at 8 ug/ml by checkerboard microdilution assay
Candida albicans [12] = experiment: Potentiation of fluconazole-induced anti-fungal activity against fluconazole-resistant Candida albicans isolate 100 assessed as fluconazole MIC80 at 4 ug/ml by checkerboard microdilution assay
Candida albicans [13] = experiment: Potentiation of fluconazole-induced anti-fungal activity against fluconazole-resistant Candida albicans isolate 100 assessed as fluconazole MIC80 at 2 ug/ml by checkerboard microdilution assay
Candida albicans [14] = experiment: Potentiation of fluconazole-induced anti-fungal activity against fluconazole-resistant Candida albicans isolate 100 assessed as fluconazole MIC80 at 1 ug/ml by checkerboard microdilution assay
Candida albicans [15] = experiment: Potentiation of fluconazole-induced anti-fungal activity against fluconazole-resistant Candida albicans isolate 103 at 8 ug/ml by checkerboard microdilution assay
Candida albicans [16] = experiment: Potentiation of fluconazole-induced anti-fungal activity against fluconazole-resistant Candida albicans isolate 103 at 4 ug/ml by checkerboard microdilution assay
Candida albicans [17] = experiment: Potentiation of fluconazole-induced anti-fungal activity against fluconazole-resistant Candida albicans isolate 103 at 2 ug/ml by checkerboard microdilution assay
Candida albicans [18] = experiment: Potentiation of fluconazole-induced anti-fungal activity against fluconazole-resistant Candida albicans isolate 103 at 1 ug/ml by checkerboard microdilution assay
Candida albicans [19] = experiment: Potentiation of fluconazole-induced anti-fungal activity against fluconazole-resistant Candida albicans isolate 100 at 8 ug/ml by checkerboard microdilution assay
Candida albicans [20] = experiment: Potentiation of fluconazole-induced anti-fungal activity against fluconazole-resistant Candida albicans isolate 100 at 4 ug/ml by checkerboard microdilution assay
Candida albicans [21] = experiment: Potentiation of fluconazole-induced anti-fungal activity against fluconazole-resistant Candida albicans isolate 100 at 2 ug/ml by checkerboard microdilution assay
Candida albicans [22] = experiment: Potentiation of fluconazole-induced anti-fungal activity against fluconazole-resistant Candida albicans isolate 100 at 1 ug/ml by checkerboard microdilution assay

SMILES	MIC80 (Candida albicans [3]) [µg/mL]	MIC80 (Candida albicans [4]) [µg/mL]	MIC80 (Candida albicans [5]) [µg/mL]	MIC80 (Candida albicans [6]) [µg/mL]	fractional inhibitory concentration index (FICI) (Candida albicans [7])	fractional inhibitory concentration index (FICI) (Candida albicans [8])	further results
COc1ccc2cc3[n+](cc2c1OC)CCc1cc2c(cc1-3)OCO2 [BERBERINE]	32	32	1	1	0.093	0.093	MIC80 (Candida albicans [1]): 1 µg/mL; MIC80 (Candida albicans [2]): 1 µg/mL; MIC80 (Candida albicans [9]): 1 µg/mL; MIC80 (Candida albicans [10]): 2 µg/mL; MIC80 (Candida albicans [11]): 1 µg/mL; MIC80 (Candida albicans [12]): 1 µg/mL; MIC80 (Candida albicans [13]): 1 µg/mL; MIC80 (Candida albicans [14]): 2 µg/mL; fractional inhibitory concentration index (FICI) (Candida albicans [15]): 0.093; fractional inhibitory concentration index (FICI) (Candida albicans [16]): 0.063; fractional inhibitory concentration index (FICI) (Candida albicans [17]): 0.039; fractional inhibitory concentration index (FICI) (Candida albicans [18]): 0.07; fractional inhibitory concentration index (FICI) (Candida albicans [19]): 0.093; fractional inhibitory concentration index (FICI) (Candida albicans [20]): 0.063; fractional inhibitory concentration index (FICI) (Candida albicans [21]): 0.039; fractional inhibitory concentration index (FICI) (Candida albicans [22]): 0.07
Cc1ccc(-c2ccccc2CNC(=O)CCc2ccc3c(c2)OCO3)cc1	> 64	> 64	0.25	0.25	0.064	0.064	–
O=C(CCc1ccc2c(c1)OCO2)NCc1ccccc1-c1ccc(F)cc1	> 64	> 64	0.5	0.5	0.066	0.066	–
O=C(CCc1ccc2c(c1)OCO2)NCc1ccccc1Br	> 64	> 64	1	1	0.07	0.07	–
Cc1cccc(-c2ccc(CNC(=O)CCc3ccc4c(c3)OCO4)cc2)c1	> 64	> 64	0.5	1	0.07	0.066	–
O=C(CCc1ccc2c(c1)OCO2)NCc1ccc(-c2ccncc2)cc1	> 64	> 64	8	8	0.125	0.125	–
N#Cc1ccc(-c2ccc(CNC(=O)CCc3ccc4c(c3)OCO4)cc2)cc1	> 64	> 64	8	8	0.125	0.125	–
O=C(CCc1ccc2c(c1)OCO2)NCc1cccc(Br)c1	> 64	> 64	2	2	0.078	0.078	–
O=C(CCc1ccc2c(c1)OCO2)NCc1ccc(-c2cccc(F)c2)cc1	> 64	> 64	0.25	0.25	0.064	0.064	–
COc1ccc(-c2ccc(CNC(=O)CCc3ccc4c(c3)OCO4)cc2)cc1	> 64	> 64	0.25	0.5	0.066	0.064	–
O=C(CCc1ccc2c(c1)OCO2)NCc1ccc(-c2ccc(Cl)cc2)cc1	> 64	> 64	0.5	0.5	0.066	0.066	–
O=C(CCc1ccc2c(c1)OCO2)NCc1ccc(-c2ccc(C(F)(F)F)cc2)cc1	> 64	> 64	4	4	0.094	0.094	–
O=C(CCc1ccc2c(c1)OCO2)NCc1ccc(-c2cccs2)cc1	> 64	> 64	0.063	0.125	0.063	0.063	–
O=C(CCc1ccc2c(c1)OCO2)NCc1ccc(-c2ccc(F)cc2)cc1	> 64	> 64	0.031	0.063	0.063	0.063	MIC80 (Candida albicans [1]): 0.125 µg/mL; MIC80 (Candida albicans [2]): 0.063 µg/mL; MIC80 (Candida albicans [9]): 0.25 µg/mL; MIC80 (Candida albicans [10]): 0.25 µg/mL; MIC80 (Candida albicans [11]): 0.031 µg/mL; MIC80 (Candida albicans [12]): 0.063 µg/mL; MIC80 (Candida albicans [13]): 0.125 µg/mL; MIC80 (Candida albicans [14]): 0.25 µg/mL; fractional inhibitory concentration index (FICI) (Candida albicans [15]): 0.064; fractional inhibitory concentration index (FICI) (Candida albicans [16]): 0.032; fractional inhibitory concentration index (FICI) (Candida albicans [17]): 0.018; fractional inhibitory concentration index (FICI) (Candida albicans [18]): 0.01; fractional inhibitory concentration index (FICI) (Candida albicans [19]): 0.064; fractional inhibitory concentration index (FICI) (Candida albicans [20]): 0.032; fractional inhibitory concentration index (FICI) (Candida albicans [21]): 0.017; fractional inhibitory concentration index (FICI) (Candida albicans [22]): 0.01
O=C(CCc1ccc2c(c1)OCO2)NCc1cccc(-c2ccc(F)cc2)c1	> 64	> 64	0.5	1	0.07	0.066	–
O=C(CCc1ccc2c(c1)OCO2)NCc1cccc(F)c1	> 64	> 64	1	1	0.07	0.07	–
O=C(CCc1ccc2c(c1)OCO2)NCc1ccc(-c2ccsc2)cc1	> 64	> 64	0.25	0.25	0.064	0.064	–
Cc1ccccc1CNC(=O)CCc1ccc2c(c1)OCO2	> 64	> 64	0.25	0.5	0.066	0.064	–
OC(Cn1cncn1)(Cn1cncn1)c1ccc(F)cc1F [FLUCONAZOLE]	128 (≈ 418 µM)	128 (≈ 418 µM)	–	–	–	–	–
Cc1ccc(-c2ccc(CNC(=O)CCc3ccc4c(c3)OCO4)cc2)cc1	> 64	> 64	0.063	0.063	0.063	0.063	MIC80 (Candida albicans [1]): 1 µg/mL; MIC80 (Candida albicans [2]): 0.063 µg/mL; MIC80 (Candida albicans [9]): 1 µg/mL; MIC80 (Candida albicans [10]): 2 µg/mL; MIC80 (Candida albicans [11]): 0.063 µg/mL; MIC80 (Candida albicans [12]): 0.5 µg/mL; MIC80 (Candida albicans [13]): 1 µg/mL; MIC80 (Candida albicans [14]): 2 µg/mL; fractional inhibitory concentration index (FICI) (Candida albicans [15]): 0.063; fractional inhibitory concentration index (FICI) (Candida albicans [16]): 0.039; fractional inhibitory concentration index (FICI) (Candida albicans [17]): 0.023; fractional inhibitory concentration index (FICI) (Candida albicans [18]): 0.023; fractional inhibitory concentration index (FICI) (Candida albicans [19]): 0.063; fractional inhibitory concentration index (FICI) (Candida albicans [20]): 0.035; fractional inhibitory concentration index (FICI) (Candida albicans [21]): 0.023; fractional inhibitory concentration index (FICI) (Candida albicans [22]): 0.023
O=C(CCc1ccc2c(c1)OCO2)NCc1ccccc1F	> 64	> 64	0.5	0.5	0.066	0.066	–
O=C(CCc1ccc2c(c1)OCO2)NCc1ccc(Br)cc1	> 64	> 64	0.5	1	0.07	0.066	–
O=C(CCc1ccc2c(c1)OCO2)NCc1ccc(-c2ccco2)cc1	> 64	> 64	2	4	0.094	0.078	–
Cc1ccc(-c2cccc(CNC(=O)CCc3ccc4c(c3)OCO4)c2)cc1	> 64	> 64	1	2	0.078	0.07	–
O=C(CCc1ccc2c(c1)OCO2)NCc1ccc(-c2ccc(F)cc2F)cc1	> 64	> 64	0.063	0.125	0.063	0.063	–
O=C(Cc1ccccc1F)NCCc1ccc2c(c1)OCO2	> 64	> 64	1	1	0.07	0.07	–
